Data as given in patent publication US9931346B2, “Serotonin-norepinephrine reuptake inhibitors (SNRIs) and Sigma receptor ligands combinations” (LABORATORIOS DEL DR. ESTEVE S.A., priority 2013, dated 2018).
Counter-ions that a name gives are not always drawn.

Test system: mechanical allodynia of the post-operative pain model
Assay: Mechanical allodynia (von Frey filaments) in the post-operative pain model (plantar incision) in rats
Type: in vivo
Experimental: The induction of anesthesia in rats was performed with 3% isofluran for veterinary use, employing an Ohmeda vaporizer and an anesthesia chamber. Anesthesia was kept during the surgical operation by a tube which directs the isofluran vapors to the animal's snout. Once the rats were anesthetized, they were laid down in a prone position and their right hind paws were cleaned out with alcohol.
Then, a skin incision in the hindpaw of about 10 mm was made by means of a scalpel, starting about 5 mm from the heel and extending toward the toes. Fascia was located and by means of curve scissors muscle was elevated and a longitudinal incision of about 5 mm was made, thus the muscle origin and insertion remained intact. The skin of the paw was stitched with a suturing stitch with breaded silk (3.0) and the wound was cleaned out with povidone.
The assessment was performed 30 minutes after the administration of product and always 4 hours after the plantar incision. The analysis was carried out evaluating the mechanical allodynia. It was tested using von Frey filaments: Animals were placed in methacrylate cylinders on an elevated surface, with metallic mesh floor perforated in order to apply the filaments. After an acclimation period of about 30 minutes within the cylinders, both hindpaws were stimulated (the injured and the non-injured paw, serving the latter as control), starting with the lowest force filament (0.4 g) and reaching a 15 g filament. The animal's response to pain was manifested by the withdrawal of the paw as a consequence of the painful stimulus caused by a filament.
(§1) The efficacy of the combined use of venlafaxine and compound 63.HCl was tested at different doses of compound 63.HCl (5, 10, 20, 40 and 80 mg/kg), while the venlafaxine dose remained constant (2.5 mg/kg). The administrations were performed 3.5 hours after surgery. The treated subjects were tested according to the mechanical allodynia protocol above (FIG. 1).
as §1, with “duloxetine” for “venlafaxine”, “(10,” for “(5, 10,”, “(0.625” for “(2.5”, “2).” for “1).”

Structure (SMILES): COc1ccc(C(CN(C)C)C2(O)CCCCC2)cc1 (stereo not shown) [Venlafaxine, venlafaxine]
- effect on mechanical allodynia (analgesia) (FIG. 1, Venlafaxine alone, sub-active dose 2.5 mg/kg): non-significant effect

Structure (SMILES): CNCC[C@H](Oc1cccc2ccccc12)c1cccs1 [Duloxetine, duloxetine]
- effect on mechanical allodynia (analgesia) (FIG. 2, Duloxetine alone, sub-active dose 0.625 mg/kg): non-significant effect

Structure (SMILES): Cc1cc(OCCN2CCOCC2)nn1-c1ccc2ccccc2c1 [compound 63.HCl, 4-{2-[5-Methyl-1-(naphthalen-2-yl)-1H-pyrazol-3-yloxy]ethyl}morpholine hydrochloride]
- maximum effect (analgesia, mechanical allodynia) (FIG. 1, compound 63.HCl alone, 5-80 mg/kg, assessed 30 min after administration, 4 h after plantar incision): 43%
- ED50 (Rattus norvegicus, FIG. 2, compound 63.HCl alone, 10-80 mg/kg, read-out: ED50 (analgesia, mechanical allodynia)): 40 mg/kg
